Experiment [1] deals with mouse model of isoproterenol (ISO) induced cardiac fibrosis. Put plainly: Mouse model of isoproterenol-induced cardiomyopathy (cardiac fibrosis). It counts as in vivo. Particulars: 129SV mice, 14 days, s.c. minipump; relative to isoproterenol treatment. An excerpt: Seven to eight-week old male 129SV mice (which are sensitive to tissue injury and fibrosis) and age-matched female Balb/c mice (which are sensitive to changes in airway hyperresponsiveness) were used for the induction of isoproterenol-induced cardiomyopathy and ovalbumin-induced chronic allergic airways disease, respectively. 16 five week-old male C57BL/6 mice were used in the induction of prostate cancer growth. All animals were obtained from Monash Animal Services (Monash University, Clayton, Victoria, Australia) and housed under standard conditions (maintained on an 12 h light-12 h dark lighting cycle with free access to food and water) in the Department of Pharmacology Animal Room at Monash University.
The mid zone of the male mouse heart and largest lung lobe from female Balb/c mice were fixed in 10% neutral buffered formalin for 24-48 h before being processed and embedded routinely in paraffin wax. Representative sections of tissue, 3-5 um each, were taken and stained with either picrosirius red (Samuel et al. 2011 Lab Invest 91, 675-690) for the detection of interstitial collagen or Masson's trichrome (Royce et al, 2009, Endocrinology 150, 2692-2699) for the detection of subepithelial basement membrane collagen deposition).
Changes in picrosirius-red stained interstitial collagen or epithelial thickness and subepithelial collagen (fibrosis) around the airway lumen from Masson's trichrome-stained sections; which were all captured (at ×20 magnification) using a SPOT digital camera (Q Imaging, Burnaby, BC, Canada) and analysed with Image J 1.3 software (National Institutes of Health, Bethesda, Md.). Four to five fields per mid zone of the heart or 4-5 airways (of 150-350 μm in diameter) per mouse were assessed. Epithelial thickness and subepithelial collagen regions were traced with a digital pen and the thickness of each region calculated by the imaging software. Results were expressed as mean thickness ([…]) of the 4-5 airways sampled.
The apical region of the heart or second largest lung lobe from each mouse was treated as described previously (Samuel C S, et at., 2003, FASEB J 17, 121-123; Royce et at. 2009, Endocrinology 150, 2692-2699) for the determination of hydroxyproline content. Hydroxyproline values were estimated based on a standard curve constructed with serial dilutions of a 0.1 mg/mL stock of trans-4-hydroxyproline-L-proline (Sigma-Aldrich). Hydroxyproline values were then converted to collagen content as detailed previously (Samuel CS, et al. 2004. Endocrinology 145, 4125-4133) and, in turn, divided by the dry weight of each corresponding left ventricular or lung tissue assessed to yield collagen concentration (a measure of fibrosis). […]

The target in experiment [2] is T1, fusion protein comprising the extracellular domain of RXFP1 and the transmembrane domain of CD8 (7BP cells) (Homo sapiens, UniProt Q9HBX9).
T1 construct: the extracellular domain of RXFP1 and the transmembrane domain of CD8; expressed in transfected cells
T1 sequence (Q9HBX9 1-409 limits assumed): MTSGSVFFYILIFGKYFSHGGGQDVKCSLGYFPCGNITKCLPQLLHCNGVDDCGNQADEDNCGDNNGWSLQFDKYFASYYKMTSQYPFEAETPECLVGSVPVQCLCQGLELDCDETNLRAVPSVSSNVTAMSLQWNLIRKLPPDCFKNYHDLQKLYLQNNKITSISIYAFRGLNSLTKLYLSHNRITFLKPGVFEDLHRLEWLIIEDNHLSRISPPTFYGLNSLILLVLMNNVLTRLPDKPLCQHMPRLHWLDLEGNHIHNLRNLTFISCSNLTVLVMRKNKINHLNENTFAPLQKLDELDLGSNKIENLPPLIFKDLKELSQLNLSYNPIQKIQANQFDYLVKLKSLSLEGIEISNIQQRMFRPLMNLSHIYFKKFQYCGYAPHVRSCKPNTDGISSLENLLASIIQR
Kind of experiment: Eu-labelled H2 relaxin competition binding to 7BP cells. Particulars: 7BP cells.

Peptide text beside a SMILES is read from it.

Consider `CC[C@H](C)[C@H](NC(=O)[C@H](C)NC(=O)[C@@H](NC(=O)[C@H](CCC(N)=O)NC(=O)[C@H](C)NC(=O)[C@H](CCCNC(=N)N)NC(=O)[C@@H](NC(=O)[C@H](CC(C)C)NC(=O)[C@H](CCC(=O)O)NC(=O)[C@H](CCCNC(=N)N)NC(=O)CNC(=O)[C@H](CO)NC(=O)[C@H](CC(C)C)NC(=O)[C@H](CCCCN)NC(=O)[C@@H](NC(=O)[C@@H](N)C(C)C)[C@@H](C)CC)C(C)C)[C@@H](C)CC)C(=O)N[C@@H](CO)C(=O)NCC(=O)N[C@@H](CCSC)C(=O)N[C@@H](CO)C(=O)N[C@H](C(=O)N[C@@H](Cc1c[nH]c2ccccc12)C(=O)N[C@@H](CO)C(=O)N[C@@H](CCCCN)C(=O)N[C@@H](CCCNC(=N)N)C(=O)N[C@@H](CO)C(=O)N[C@@H](CC(C)C)C(N)=O)[C@@H](C)O` [B7-33 C11.23S] (H-VIKLSGRELVRAQIAISGMSTWSKRSL-NH2), for which, in experiment [1], the “Percentage of interstitial collagen in the left ventricle (picrosirius red)” value was “significantly reduced” and the “Total left ventricular collagen concentration (hydroxyproline analysis)” value is “significantly reduced”. Besides, the Ki in experiment [2] (competition with Eu-labelled H2 relaxin, n ≥ 3, read-out: 7BP Eu-H2 pKi (converted)) was 22.4 nM. Further, in experiment [2] (lower affinity than H2 relaxin, FIG. 2B), the “Binding to 7BP cells (in words)” value is “strongly bind to 7BP cells”.

For the origin of these results see US10081662B2, “Modified relaxin B chain peptides” (The Florey Institute of Neuroscience and Mental Health, priority 2014, dated 2018).
